Where “and” joins values, the source holds several entries; their conditions need not be identical. Equal entries are not always repeated.
Tested on: BDF1 mice, Adenocarcinoma 755 s.c., tumor weight T/C
Experiment: NCI In Vivo Anticancer Drug Screen. Data for tumor model Adenocarcinoma 755 (subcutaneous) in B6D2F1 (BDF1) mice
Conditions: endpoint: mean tumor weight, higher = larger tumour
Procedure, shortened: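 Values express treated (T) relative to vehicle-dosed control (C) animals, based on survival or tumour size measured after compound treatment of mice bearing a transplanted tumour.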

[1] = dose: 125.0 mg/kg/injection, schedule: Q01DX011 (ip), vehicle: methylcellulose (MC)
[2] = dose: 125.0 mg/kg/injection, schedule: Q01DX011 (ip), vehicle: saline
[3] = dose: 250.0 mg/kg/injection, schedule: Q01DX011 (ip), vehicle: methylcellulose (MC)
[4] = dose: 500.0 mg/kg/injection, schedule: Q01DX011 (ip), vehicle: methylcellulose (MC)
[5] = dose: 15.0 mg/kg/injection, schedule: Q01DX011 (ip), vehicle: methylcellulose (MC)
[6] = dose: 31.0 mg/kg/injection, schedule: Q01DX011 (ip), vehicle: methylcellulose (MC)
[7] = dose: 62.0 mg/kg/injection, schedule: Q01DX011 (ip), vehicle: methylcellulose (MC)
[8] = dose: 150.0 mg/kg/injection, schedule: Q01DX011 (ip), vehicle: methylcellulose (MC)

In the case of `CCOC(N)=O`, the T/C (dose: 62.5 mg/kg/injection, schedule: Q#A X022 (ip), vehicle: saline) is reported as 52 % of control, the T/C (dose: 62.62 mg/kg/injection, schedule: Q01DX011 (ip), vehicle: carboxymethylcellulose (CMC)) is reported as 79 % of control and the T/C (dose: 102.5 mg/kg/injection, schedule: Q01DX011 (ip), vehicle: carboxymethylcellulose (CMC)) is reported as 94 % of control. The T/C (dose: 125.0 mg/kg/injection, schedule: Q01DX001 (ip), vehicle: saline) was 121 % of control, the T/C (dose: 125.0 mg/kg/injection, schedule: Q01DX006 (iv), vehicle: saline) was 75 % of control and the T/C (dose: 125.0 mg/kg/injection, schedule: Q01DX011 (im), vehicle: saline) was 83 % of control. For the same molecule, the T/C [1] was 85 % of control, the T/C [2] was 68 % of control and the T/C (dose: 125.0 mg/kg/injection, schedule: Q01DX011 (sc), vehicle: saline) was 96 % of control. The T/C (dose: 125.0 mg/kg/injection, schedule: Q07DX002 (ip), vehicle: saline) was 104 % of control, the T/C (dose: 125.0 mg/kg/injection, schedule: Q#A X022 (ip), vehicle: saline) was 59 % of control and the T/C (dose: 125.25 mg/kg/injection, schedule: Q01DX011 (ip), vehicle: carboxymethylcellulose (CMC)) was 63 % of control. For the same molecule, the T/C (dose: 200.4 mg/kg/injection, schedule: Q01DX011 (ip), vehicle: carboxymethylcellulose (CMC)) was 41 % of control and 50 % of control, the T/C (dose: 205.0 mg/kg/injection, schedule: Q01DX011 (ip), vehicle: carboxymethylcellulose (CMC)) was 116 % of control and the T/C (dose: 250.0 mg/kg/injection, schedule: Q01DX001 (ip), vehicle: saline) was 92 % of control and 93 % of control. For the same molecule, the T/C (dose: 250.0 mg/kg/injection, schedule: Q01DX006 (iv), vehicle: saline) was 74 % of control, the T/C (dose: 250.0 mg/kg/injection, schedule: Q01DX011 (im), vehicle: saline) was 65 % of control and the T/C [3] was 53 % of control. The T/C (dose: 250.0 mg/kg/injection, schedule: Q01DX011 (ip), vehicle: saline) was 51 % of control, the T/C (dose: 250.0 mg/kg/injection, schedule: Q01DX011 (oral), vehicle: saline) was 69 % of control and the T/C (dose: 250.0 mg/kg/injection, schedule: Q01DX011 (sc), vehicle: saline) was 67 % of control. For the same molecule, the T/C (dose: 250.0 mg/kg/injection, schedule: Q07DX002 (ip), vehicle: saline) was 85 % of control, the T/C (dose: 250.0 mg/kg/injection, schedule: Q#A X022 (ip), vehicle: saline) was 9 % of control and the T/C (dose: 328.0 mg/kg/injection, schedule: Q01DX011 (ip), vehicle: carboxymethylcellulose (CMC)) was 41 % of control and 52 % of control. The T/C (dose: 375.0 mg/kg/injection, schedule: Q03DX004 (ip), vehicle: saline) was 59 % of control, the T/C (dose: 500.0 mg/kg/injection, schedule: Q01DX001 (ip), vehicle: saline) was 110 % of control and 85 % of control and the T/C (dose: 500.0 mg/kg/injection, schedule: Q01DX006 (iv), vehicle: saline) was 38 % of control. For the same molecule, the T/C (dose: 500.0 mg/kg/injection, schedule: Q01DX011 (im), vehicle: saline) was 32 % of control, the T/C [4] was 33 % of control and the T/C (dose: 500.0 mg/kg/injection, schedule: Q01DX011 (ip), vehicle: saline) was 19 % of control. For the same molecule, the T/C (dose: 500.0 mg/kg/injection, schedule: Q01DX011 (oral), vehicle: saline) was 20 % of control, the T/C (dose: 500.0 mg/kg/injection, schedule: Q01DX011 (sc), vehicle: saline) was 42 % of control and the T/C (dose: 500.0 mg/kg/injection, schedule: Q07DX002 (ip), vehicle: saline) was 83 % of control. For the same molecule, the T/C (dose: 501.0 mg/kg/injection, schedule: Q01DX011 (ip), vehicle: carboxymethylcellulose (CMC)) was 17 % of control and 27 % of control, the T/C (dose: 546.6 mg/kg/injection, schedule: Q01DX011 (ip), vehicle: carboxymethylcellulose (CMC)) was 22 % of control and 23 % of control and the T/C (dose: 750.0 mg/kg/injection, schedule: Q03DX004 (ip), vehicle: saline) was 54 % of control. For the same molecule, the T/C (dose: 820.0 mg/kg/injection, schedule: Q01DX011 (ip), vehicle: carboxymethylcellulose (CMC)) was 10 % of control and 20 % of control, the T/C (dose: 1000.0 mg/kg/injection, schedule: Q01DX001 (ip), vehicle: saline) was 49 % of control and 64 % of control and the T/C (dose: 1000.0 mg/kg/injection, schedule: Q01DX006 (iv), vehicle: saline) was 21 % of control. The T/C (dose: 1000.0 mg/kg/injection, schedule: Q07DX002 (ip), vehicle: saline) was 69 % of control.
With `Nc1nc(=S)c2ncn(C3CCCC3)c2[nH]1` the T/C (dose: 3.1 mg/kg/injection, schedule: Q01DX011 (ip), vehicle: methylcellulose (MC)) was 37 % of control and the T/C (dose: 6.2 mg/kg/injection, schedule: Q01DX011 (ip), vehicle: methylcellulose (MC)) was 8 % of control.
In the case of `Cc1ccccc1CNc1ncnc2[nH]ncc12`, the T/C (dose: 5.0 mg/kg/injection, schedule: Q01DX011 (ip), vehicle: saline) is reported as 79 % of control, the T/C (dose: 10.0 mg/kg/injection, schedule: Q01DX011 (ip), vehicle: saline) is reported as 60 % of control and the T/C (dose: 25.0 mg/kg/injection, schedule: Q01DX011 (ip), vehicle: saline) is reported as 29 % of control. For the same molecule, the T/C (dose: 100.0 mg/kg/injection, schedule: Q01DX011 (ip), vehicle: saline) was 4 % of control and the T/C [2] was 9 % of control.
In the case of `Cc1cn(C2CCCCC2)c(=O)n(-c2ccccc2)c1=O`, the T/C [5] is reported as 108 % of control, the T/C [6] is reported as 91 % of control and the T/C [7] is reported as 93 % of control. For the same molecule, the T/C [1] was 96 % of control and the T/C [3] was 88 % of control.
`CSc1ncc(C)c(=O)[nH]1` was tested, and the T/C [5] was 113 % of control, the T/C [6] was 124 % of control and the T/C [7] was 99 % of control.
`NC(CS)C(=O)O` (stereo unspecified) (tested in a mixture with another compound) was tested, and the T/C [8] was 42 % of control, the T/C (dose: 150.0 mg/kg/injection, schedule: Q01DX011 (ip), vehicle: saline) was 56 % of control and 61 % of control and the T/C (dose: 225.0 mg/kg/injection, schedule: Q01DX011 (ip), vehicle: methylcellulose (MC)) was 31 % of control. The T/C (dose: 225.0 mg/kg/injection, schedule: Q01DX011 (ip), vehicle: saline) was 18 % of control, the T/C (dose: 275.0 mg/kg/injection, schedule: Q01DX011 (ip), vehicle: saline) was 55 % of control and the T/C (dose: 350.0 mg/kg/injection, schedule: Q01DX011 (ip), vehicle: methylcellulose (MC)) was 18 % of control. The T/C (dose: 350.0 mg/kg/injection, schedule: Q01DX011 (ip), vehicle: saline) was 35 % of control and 48 % of control and the T/C [4] was 19 % of control.
For `O=C(Nc1ncnc2c1ncn2C1CC(OC(=O)c2ccc([N+](=O)[O-])cc2)C(COC(=O)c2ccc([N+](=O)[O-])cc2)O1)c1ccccc1` (stereo unspecified), the T/C (dose: 16.7 mg/kg/injection, schedule: Q01DX011 (ip), vehicle: methylcellulose (MC)) was 104 % of control, the T/C (dose: 50.0 mg/kg/injection, schedule: Q01DX011 (ip), vehicle: methylcellulose (MC)) was 102 % of control and the T/C [8] was 62 % of control.
